Reference: article PMC9606171, “Synthetic PPAR Agonist DTMB Alleviates Alzheimer’s Disease Pathology by Inhibition of Chronic Microglial Inflammation in 5xFAD Mice” (Neurotherapeutics, 2022)

Legend:
[1] = test system: primary microglia; assay: Quantitative PCR of NF-κB target genes in primary microglia; assay type: cell-based, mice
Protocol: (§1) Primary microglia culture was conducted as described in a previous study. Mice at postnatal day 3 mice were used for the preparation of primary microglia. Newborn mice pups were anesthetized in ice and then sacrificed. Isolated cortex and hippocampus were collected after removing the meninges. Brain tissues were dissociated by incubating in HBSS (Gibco, Gaithersburg, MD, USA) with trypsin (2.5%) for 15 min. Cell homogenates were then incubated in M-CSF (20 ng/mL, R&D Systems) supplemented with DMEM-F12 medium with 10% fetal bovine serum, 10% horse serum, 1% GlutaMAX (Gibco, MD, USA), and 1% penicillin/streptomycin (Welgene, Korea). After 10 days, microglia were purified through shaking at 260 rpm for 2 h.
Total RNA was isolated using TRI Reagent (Molecular Research Center, Cincinnati, OH, USA). RNA was reverse transcribed using the ImProm-II™ Reverse Transcription System (Promega) according to the manufacturer’s instructions. For detection and quantification, a StepOnePlus Real-Time PCR System (Applied Biosystems, Foster City, CA, USA) was used with FastStart Universal SYBR Green Master (Roche, Basel, Switzerland). Real-time qPCR data were analyzed using the comparative CT method. Sample sizes were 10–15 mice per group.

[2] = biological target: T1, recombinant human PPARα LBD (Homo sapiens, UniProt Q07869); assay: CNBr-bead pull down assay, PPARα LBD; assay type: binding; details: drug conjugated CNBr beads
T1 sequence (Q07869 239-466 limits assumed): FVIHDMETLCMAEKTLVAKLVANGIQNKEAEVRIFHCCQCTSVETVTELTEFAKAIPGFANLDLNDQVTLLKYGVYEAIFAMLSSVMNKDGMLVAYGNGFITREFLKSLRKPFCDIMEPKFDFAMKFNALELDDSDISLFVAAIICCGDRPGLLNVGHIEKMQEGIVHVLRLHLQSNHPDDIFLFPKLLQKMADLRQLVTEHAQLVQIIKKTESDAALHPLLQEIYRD
Protocol: CNBr Sepharose 4B beads were prepared and activated according to the instruction. 100 mg of CNBr activated Sepharose 4B beads were incubated with drugs or DMSO for 18 h at 4 °C. The drug conjugated beads reacted to his-tagged recombinant PPAR α, β/δ, and γ protein. After 24 h of incubation, we confirmed whether recombinant protein binds to the drug conjugated bead through western blotting experiment.

[3] = test system: 5xFAD mice; assay: Morris water maze in 5xFAD mice; assay type: in vivo; details: 10 mg/kg orally, 3 months
Protocol: DTMB was synthesized from Daejung Chemicals (Korea) and was dissolved in dimethyl sulfoxide (Sigma Aldrich, St. Louis, MO, USA) for cell-based experiments. To evaluate the effects of DTMB on 5xFAD mice, DTMB (10 mg/kg) and vehicle (1% carboxymethylcellulose and 10% DMSO) were orally administrated to four groups (wild-type, wild-type + DTMB, 5xFAD, and 5xFAD + DTMB) with a 6 day per week for 3 months.
A white water maze tank (120 cm diameter) was filled with water containing white non-toxic tempera paint to make the water opaque. The maze tank was divided into four quadrants, and four different visual cues were placed at each cardinal point. The water temperature was set to 20–22 °C. The Morris water maze experiment was divided into a training session, during which the mice were placed in the tank to find the platform for five consecutive days, followed by a probe test on day 6. Each mouse was trained over three trials per day and the starting quadrant was different for each trial. The duration of each training trials was 1 min and we guided the mice to the platform thereafter. In the probe test on day 6, the platform was removed, and each mouse was allowed to swim for 60 s. Target quadrant occupancy was measured automatically using a SMART v2.5 video tracking system (Panlab, TX, USA). Sample sizes were 20–25 mice per group.

[4] = test system: BV2 cells; assay: Western blot of NF-κB, NLRP3 and ASC in BV2 cells; assay type: cell-based, mouse
Protocol: The BV2 mouse microglia cell line was received from Professor K. H. Suk (Kyungpook National University, Korea). BV2 cells were cultured with Dulbecco’s Modified Eagle Medium (DMEM) (Hyclone, Logan, UT, USA), containing 5% fetal bovine serum (FBS, Hyclone) and 50 μg/mL of gentamicin (Lonza, Switzerland), in a 5% CO2 incubator with a humidified atmosphere at 37 °C. RAW 264.7 macrophage cells were cultured with DMEM that contains 10% FBS and 1% penicillin/streptomycin in a 5% CO2 incubator with a humidified atmosphere at 37 °C.
(§2) Cells were lysed with lysis buffer containing 50 mM Tris (pH 7.4), 140 mM NaCl, 5 mM EDTA, and a protease inhibitor tablet, followed by sonication. Lysate protein concentrations were determined using Bradford reagents (AMERSCO, MA, USA). Proteins were resolved by sodium dodecyl sulfate (SDS) polyacrylamide gel electrophoresis, transferred to nitrocellulose membranes (Pall Corporation, New York, NY, USA), and incubated with blocking buffer (5% nonfat dry milk in TBS and 0.1% Tween 20) for 30 min. Western blot analyses were performed using primary antibodies against NF-κB, NLRP3, ASC, nicastrin, pen2 (Cell Signaling Technology, Danvers, MA, USA), Aph1 (Invitrogen), amyloid C-terminal fragment (Santa Cruz Biotechnology, Dallas, TX, USA), and GAPDH (Bethyl Laboratories, Mongomery, TX, USA). Secondary antibodies of rabbit (Promega), rat, and goat (Bethyl Laboratories) were used, and detection was performed with SUPEX ECL reagent (Neuronex, Korea) and an ImageQuant LAS-4000 (GE Healthcare, MA, USA), according to the manufacturer’s instructions. The integrated blot density was quantified through ImageJ.

[5] = test system: HMO6 cell line; assay: Cell viability assay (MTT), HMO6; assay type: cell-based; details: 48 h
Protocol: Cell viability was measured by chromogenic assay involving the biological reduction of 3-(4,5-dimethyl-thiazol-2-yl)-2,5-diphenyltetrazoliumbromide (MTT) to formazan in living cells. Briefly, cells were seeded in 96-well plates in a final volume of 100 μL. After 24 h, the culture media were replaced with fresh media containing DTMB compounds, and the cells were cultured for another 48 h. Next, MTT (5 mg/mL in PBS) was added to the culture medium. The cells were incubated for 1 h in the dark at 37 °C, and the supernatant was then removed from the well. Total MTT solvent (4 mM HCl and 0.1% Nonidet P-40, both in isopropanol) was added to dissolve the formazan crystal, and absorbance was measured at 570 nm using a microplate reader Infinite 200 Pro NanoQuant microplate reader (TECAN, Switzerland).

[6] = test system: primary microglia; assay: Western blot of NF-κB, NLRP3 and ASC in primary microglia; assay type: cell-based, mice; details: DTMB 25 µM, 24 h
Protocol: as §1, §2

Question: How did the “mRNA levels of NFκB” value [1] turn out when `COc1ccc(-c2cc(=O)oc3c(C)c(OC(=O)[C@H](Cc4c[nH]c5ccccc45)NC(=O)OC(C)(C)C)ccc23)cc1` [DTMB] was run?
Answer: Its value is “no change”.

Question: What about the “expression of NF-κB target genes Il-6, Il-1β, and Inos” value ([1]; primary microglia, mRNA) of the same compound?
Answer: The value was “decreased”.

Question: What about the “expression of anti-inflammatory marker (Arg-1)” value ([1]; primary microglia, mRNA) of the same compound?
Answer: The value was “induced”.

Question: What about the “binding to PPAR LBD (pull-down, western blot)” value ([2]; PPARα LBD) of the same compound?
Answer: The value was “binds”.

Question: And the “binding to PPARα LBD compared to WY14643 (pull-down)” value [2]?
Answer: Its value is “stronger binding to PPARα LBD than WY14643”.

Question: What about the “target quadrant occupancy (probe test, day 6)” value [3] of the same compound?
Answer: The value was “markedly improved”.

Question: And the “protein level of ASC” value [4]?
Answer: Its value is “not changed”.

Question: And the “protein level of NF-κB” value [4]?
Answer: Its value is “decreased”.

Question: What about the “protein level of NLRP3” value [4] of the same compound?
Answer: Its value is “decreased”.

Question: What about the “cytotoxicity (MTT)” value [5] of the same compound?
Answer: Its value is “no cytotoxicity”.

Question: And the “protein level of ASC” value [6]?
Answer: The value was “not changed”.

Question: What about the “protein level of NF-κB” value [6] of the same compound?
Answer: Its value is “decreased”.

Question: What about the “protein level of NLRP3” value [6] of the same compound?
Answer: The value was “decreased”.
